Four compounds from PubChem BioAssay AID1259407 (Chemical Carcinogenesis Research Information System (CCRIS), 2018) can be followed below.

The test system of the series is CCRIS mutagenicity, Ames/micronucleus/aberration tests. Briefly: CCRIS mutagenicity studies.
[1] abbreviates: Test System: AMES SALMONELLA TYPHIMURIUM, Strain/Indicator: TA98, Metabolic Activation: NONE, Method: STANDARD PLATE.
Setting [2] is: Test System: AMES SALMONELLA TYPHIMURIUM, Strain/Indicator: TA100, Metabolic Activation: NONE, Method: STANDARD PLATE.

Activity calls are given as the source filed them. No rule for the calls is given here.

With `Cc1ccc(C(C)C)cc1O`, the mutagenic call was “inactive; negative” under setting [1]; “inactive; negative” (Test System: AMES SALMONELLA TYPHIMURIUM, Strain/Indicator: TA98, Metabolic Activation: S-9, Method: STANDARD PLATE); “inactive; negative” under setting [2]; “inactive; negative” (Test System: AMES SALMONELLA TYPHIMURIUM, Strain/Indicator: TA100, Metabolic Activation: S-9, Method: STANDARD PLATE).

Turning to `C=C(Cl)Cl`, the mutagenic call was “inactive; negative” (End Point: IN VITRO CHROMOSOMAL ABERRATIONS, Test System: CHINESE HAMSTER LUNG (CHL), Metabolic Activation: NONE); “active; positive” (End Point: IN VITRO CHROMOSOMAL ABERRATIONS, Test System: CHINESE HAMSTER LUNG (CHL), Metabolic Activation: RAT. LIVER, S-9, KC-400); “inactive; negative” (End Point: IN VIVO MICRONUCLEUS, Test System: BONE MARROW POLYCHROMATIC ERYTHROCYTES, Species: MOUSE, Strain/Sex: DDY/MALE, Route: GAVAGE (ORAL) ONCE); “inactive; negative” (End Point: IN VIVO MICRONUCLEUS, Test System: BONE MARROW POLYCHROMATIC ERYTHROCYTES, Species: MOUSE, Strain/Sex: DDY/MALE, Route: GAVAGE (ORAL), 4 DOSES AT 24 HR INTERVALS); “inactive; negative” (End Point: IN VIVO MICRONUCLEUS, Test System: MICRONUCLEATED POLYCHROMATIC ERYTHROCYTES, Species: MOUSE, Strain/Sex: ICR/FEMALE (PREGNANT), Route: IP INJECTION ON 18 D OF GESTATION); “inactive; negative” (Test System: AMES SALMONELLA TYPHIMURIUM, Strain/Indicator: RSJ100, Metabolic Activation: NONE, Method: VAPOR PHASE). The mutagenic call runs as follows: (Test System: AMES SALMONELLA TYPHIMURIUM, Strain/Indicator: TA97, Metabolic Activation: NONE, Method: STANDARD PLATE) “inactive; negative”; (Test System: AMES SALMONELLA TYPHIMURIUM, Strain/Indicator: TA97, Metabolic Activation: RAT, LIVER, S-9, AROCLOR 1254, Method: STANDARD PLATE) “active; positive”; under setting [1], “inactive; negative”; (Test System: AMES SALMONELLA TYPHIMURIUM, Strain/Indicator: TA98, Metabolic Activation: RAT, LIVER, S-9, AROCLOR 1254, Method: STANDARD PLATE) “active; positive”; (Test System: AMES SALMONELLA TYPHIMURIUM, Strain/Indicator: TA98, Metabolic Activation: RAT, LIVER, S-9, PCB, Method: GAS EXPOSURE) “inactive; negative”; (Test System: AMES SALMONELLA TYPHIMURIUM, Strain/Indicator: TA100, Metabolic Activation: MOUSE, LIVER, S-9, PHENOBARBITAL, Method: DESICCATOR) “active; positive”. Further, the mutagenic call reads like this: under setting [2], “active; positive”; (Test System: AMES SALMONELLA TYPHIMURIUM, Strain/Indicator: TA100, Metabolic Activation: RAT, LIVER, S-9, AROCLOR 1254, Method: DESICCATOR) “active; positive”; (Test System: AMES SALMONELLA TYPHIMURIUM, Strain/Indicator: TA100, Metabolic Activation: RAT, LIVER, S-9, AROCLOR 1254, Method: STANDARD PLATE) “active; positive”; (Test System: AMES SALMONELLA TYPHIMURIUM, Strain/Indicator: TA100, Metabolic Activation: RAT, LIVER, S-9, PCB, Method: GAS EXPOSURE) “active; positive”; (Test System: AMES SALMONELLA TYPHIMURIUM, Strain/Indicator: TA100, Metabolic Activation: RAT, LIVER, S-9, PHENOBARBITAL, Method: DESICCATOR) “active; positive”; (Test System: AMES SALMONELLA TYPHIMURIUM, Strain/Indicator: TA104, Metabolic Activation: NONE, Method: STANDARD PLATE) “inactive; negative”. Moreover, the mutagenic call is “inactive; negative” (Test System: AMES SALMONELLA TYPHIMURIUM, Strain/Indicator: TA104, Metabolic Activation: RAT, LIVER, S-9, AROCLOR 1254, Method: STANDARD PLATE); “active; positive” (Test System: AMES SALMONELLA TYPHIMURIUM, Strain/Indicator: TA1530, Metabolic Activation: MOUSE, LIVER, S-9, PHENOBARBITAL, Method: DESICCATOR); “active; positive” (Test System: AMES SALMONELLA TYPHIMURIUM, Strain/Indicator: TA1535, Metabolic Activation: HAMSTER, LIVER, S-9, AROCLOR 1254, Method: DESICCATOR); “active; positive” (Test System: AMES SALMONELLA TYPHIMURIUM, Strain/Indicator: TA1535, Metabolic Activation: MOUSE, KIDNEY, S-9, Method: DESICCATOR); “active; positive” (Test System: AMES SALMONELLA TYPHIMURIUM, Strain/Indicator: TA1535, Metabolic Activation: MOUSE, LIVER, S-9, AROCLOR 1254, Method: DESICCATOR); “active; positive” (Test System: AMES SALMONELLA TYPHIMURIUM, Strain/Indicator: TA1535, Metabolic Activation: RAT, LIVER, S-9, AROCLOR 1254, Method: DESICCATOR). The mutagenic call is, setting by setting: (Test System: AMES SALMONELLA TYPHIMURIUM, Strain/Indicator: TA1535, Metabolic Activation: RAT, LIVER, S-9, PCB, Method: GAS EXPOSURE) “active; positive”; (Test System: AMES SALMONELLA TYPHIMURIUM, Strain/Indicator: TA1535, Metabolic Activation: RAT, LIVER, S-9, PHENOBARBITAL, Method: DESICCATOR) “active; positive”; (Test System: AMES SALMONELLA TYPHIMURIUM, Strain/Indicator: TA1537, Metabolic Activation: RAT, LIVER, S-9, PCB, Method: GAS EXPOSURE) “inactive; negative”; (Test System: AMES SALMONELLA TYPHIMURIUM, Strain/Indicator: TA1538, Metabolic Activation: RAT, LIVER, S-9, PCB, Method: GAS EXPOSURE) “inactive; negative”; (Test System: AMES SALMONELLA TYPHIMURIUM, Strain/Indicator: TA2637, Metabolic Activation: RAT, LIVER, S-9, PCB, Method: GAS EXPOSURE) “inactive; negative”; (Test System: AMES SALMONELLA TYPHIMURIUM, Strain/Indicator: TPT100, Metabolic Activation: NONE, Method: VAPOR PHASE) “active; positive”. In addition, the mutagenic call by setting is: (Test System: E. COLI, Strain/Indicator: WP2 UVRA (PKM101), Metabolic Activation: RAT, LIVER, S-9, PCB, Method: GAS EXPOSURE) “active; positive”; (Test System: E. COLI, Strain/Indicator: WP2 UVRA, Metabolic Activation: RAT, LIVER, S-9, PCB, Method: GAS EXPOSURE) “active; positive”; (Test System: MOUSE LYMPHOMA, Strain/Indicator: L5178Y (TK+/TK-), Metabolic Activation: NONE, Method: SUSPENSION/PLATE) “inactive; negative”; (Test System: MOUSE LYMPHOMA, Strain/Indicator: L5178Y (TK+/TK-), Metabolic Activation: RAT, LIVER, S-9, Method: SUSPENSION/PLATE) “active; positive”.

Consider `O=S(=O)(O)C1C(O)c2c(cc3ccc4cccc5ccc2c3c45)C(O)C1O` (stereo not given), for which the mutagenic call (Test System: AMES SALMONELLA TYPHIMURIUM, Strain/Indicator: TA98, Metabolic Activation: NONE, Method: PREINCUBATION) is “inactive; negative”.

As for `O=C1CC[C@@]2(O)[C@H]3Cc4ccc(O)c5c4[C@@]2(CCN3CC2CC2)[C@H]1O5`, the mutagenic call (Test System: UDS HUMAN FIBROBLASTS, Strain/Indicator: THY INCORP (NON-S-PHASE), Metabolic Activation: NONE, Method: AUTORADIOGRAPHY) is “active; positive”.
